Assays:
Assay in all cases: Antitumor bioactivity evaluation, breast cancer cells (ATPlite)
[1] = test system: BT474; format: cell-based; conditions: Homo sapiens, BT-474; test sample 5 μM, 72 hours; read-out: Inhibitory Rate % BT474
Description: (§1) Antitumor bioactivity evaluation of the compounds of Examples according to the method described below
(§2) Cells plating: a 100 mm culture dish with overgrown adherent cells was digested with 1 ml 0.25% trypsin (GIBCO) at 37° C. for 5 min, and the reaction was terminated with 2 ml culture medium (containing 10% FBS, GIBCO). The cells were scattered and collected, after counting, diluted to 1×10^5 cells/ml, and seeded into a 96-well plate at 50 μl/well, 5000 cells/well, excluding the peripheral circle of wells in which no cell was added, but PBS was added, 60 wells in total, and then incubated at 37° C. for 24 hours for adhering.
(§3) Addition of the compound and lapatinib: the test sample was diluted to a final concentration of 5 μM, and the culture medium with the corresponding compound solvent concentration was filled in the control well, the compound solvent concentration was kept consistent in each well, 5 parellel wells were set for each concentration, 25 μl each well, 25 μl culture medium (in combined group, 25 μl lapatinib was added till a final concentration of 1 μM) supplemented, followed by incubation at 37° C. for 72 hours.
(§4) Test after incubation at 37° C. for 72 hours: 50 μL of ATPlite kit substrate solution was added in each well, and vibrated for 3 min, followed by placing aside in darkness for 10 min, and then supernatant 100 μl/well was taken and placed on aluminescence test plate; the luminescence test plate that has been fully incubated was placed in a luminescence test instrument, to read luminescence value.
(§5) 1. Cell survival rate (%)=Experimental group RLU/control group RLU×100%. The experimental data were subjected to data analysis and processing by utilizing GraphPad software.

[2] = test system: MDA-MB-361; format: cell-based; conditions: Homo sapiens, test sample 5 μM, 72 hours, read-out: Inhibitory Rate % MDA-MB-361
Description: as §1, §2, §3, §4, §5

[3] = test system: MDA-MB-453; format: cell-based; conditions: Homo sapiens, test sample 5 μM, 72 hours, read-out: Inhibitory Rate % MDA-MB-453
Description: as §1, §2, §3, §4, §5

[4] = test system: SK-BR3; format: cell-based; conditions: Homo sapiens, SK-BR-3; test sample 5 μM, 72 hours; read-out: Inhibitory Rate % SK-BR3
Description: as §1, §2, §3, §4, §5

[5] = test system: SK/Lap^R1.0; format: cell-based; conditions: Homo sapiens; test sample 5 μM, 72 hours; read-out: Inhibitory Rate % SKLap^R1.0
Description: as §1, §2, §3, §4, §5

[6] = test system: BT/Lap^R1.0; format: cell-based, human; conditions: Homo sapiens; test sample 5 μM, 72 hours; read-out: Inhibitory Rate % BT/Lap^R1.0
Description: as §1, §2, §3, §4, §5

Row | SMILES | inhibition at 5 µM [1] | inhibition at 5 µM [2] | inhibition at 5 µM [3] | inhibition at 5 µM [4] | inhibition at 5 µM [5] | inhibition at 5 µM [6]
1 | CCOc1ncc(CN2CCC(N(C)Cc3cccc(Cl)c3)CC2)s1 [Example 1, N-methyl-N-m-chlorobenzyl-N-{1-[(2-ethoxythiazol-5-yl)methyl]piperidin-4-yl}amine] | 14.4% | 14.2% | 41.2% | 16.7% | 5.2% | 12.5%
2 | CCOc1ncc(CN2CCC(N(C)Cc3ccccc3C#N)CC2)s1 [Example 2, N-methyl-N-o-cyanobenzyl-N-{1-[(2-ethoxythiazol-5-yl)methyl]piperidin-4-yl}amine] | 17.6% | 12.3% | 43.8% | 13.6% | 7.2% | 19.4%
3 | CCOc1ncc(CN2CCC(N(C)Cc3ccc(Cl)c(Cl)c3)CC2)s1 [Example 3, N-methyl-N-(3,4-dichlorobenzyl)-N-{1-[(2-ethoxythiazol-5-yl)methyl]piperidin-4-yl}amine] | 62.9% | 35.8% | 71.6% | 41.2% | 13.1% | 67.4%
4 | CCOc1ncc(CN2CCC(N(C)Cc3ccc(C#N)cc3)CC2)s1 [Example 4, N-methyl-N-(4-cyanobenzyl)-N-{1-[(2-ethoxythiazol-5-yl)methyl]piperidin-4-yl}amine] | 61.7% | 51.3% | 70.5% | 45.5% | 6.7% | 66.1%
5 | CCOc1ncc(CN2CCC(N(C)Cc3c(F)cccc3Cl)CC2)s1 [Example 5, N-methyl-N-(2-fluoro-6-chlorobenzyl)-N-{1-[(2-ethoxythiazol-5-yl)methyl]piperidin-4-yl} amine] | 54.4% | 32.8% | 67.4% | 40.9% | 11.7% | 50.5%
6 | CCOc1ncc(CN2CCC(N(C)Cc3ccccc3Cl)CC2)s1 [Example 6, N-methyl-N-(2-chlorobenzyl)-N-{1-[(2-ethoxythiazol-5-yl)methyl]piperidin-4-yl}amine] | 10.1% | 33.3% | 36.4% | 12.6% | 0.6% | 13.3%
7 | CCOc1ncc(CN2CCC(N(C)Cc3ccc(F)cc3)CC2)s1 [Example 7, N-methyl-N-(4-fluorobenzyl)-N-{[1-(2-ethoxythiazol-5-yl)methyl]piperidin-4-yl}amine] | 36.4% | 24.2% | 52.9% | 26% | 25.1% | 20.7%
8 | CCOc1ncc(CN2CCC(N(C)Cc3ccc(Cl)cc3Cl)CC2)s1 [Example 8, N-methyl-N-(2,4-dichlorobenzyl)-N-{[1-(2-ethoxythiazol-5-yl)methyl]piperidin-4-yl}amine] | 70.3% | 49.2% | 71.3% | 41.6% | 12% | 65.9%
9 | CCOc1ncc(CN2CCC(N(C)Cc3c(Cl)cccc3Cl)CC2)s1 [Example 9, N-methyl-N-(2,6-dichlorobenzyl)-N-{[1-(2-ethoxythiazol-5-yl)methyl]piperidin-4-yl}amine] | 38.2% | 24.5% | 51.5% | 17.9% | 5.1% | 25.6%
10 | CCOc1ncc(CN2CCC(N(C)Cc3cc(Cl)ccc3Cl)CC2)s1 [Example 10, N-methyl-N-(2,5-dichlorobenzyl)-N-{[1-(2-ethoxythiazol-5-yl)methyl]piperidin-4-yl}amine] | 5.6% | 25.3% | 23.9% | 9.4% | 5.2% | 9.6%
11 | Clc1ncc(CN2CCC(NCc3ccc(Cl)c(Cl)c3)CC2)s1 [Example 11, N-(3,4-dichlorobenzyl)-N-{1-[(2-chlorothiazol-5-yl)methyl]piperidin-4-yl}amine] | 11% | 13.9% | 32.9% | 26.3% | 25.1% | 10.6%
12 | Clc1cccc(CNC2CCN(Cc3cnc(Cl)s3)CC2)c1 [Example 13, N-(3-chlorobenzyl)-N-{1-[(2-chlorothiazol-5-yl)methyl]piperidin-4-yl}amine] | 3.8% | 3.2% | 2.4% | 17.9% | 4.1% | 7.2%
13 | CN(Cc1ccc(C#N)cc1)C1CCN(Cc2cnc(Cl)s2)CC1 [Example 15, N-methyl-N-(4-cyanobenzyl)-N-{1-[(2-chlorothiazol-5-yl)methyl]piperidin-4-yl}amine] | 69.3% | 35.6% | 68.5% | 41.5% | 7.5% | 68.7%
14 | CN(Cc1ccc(F)cc1)C1CCN(Cc2cnc(Cl)s2)CC1 [Example 16, N-methyl-N-(4-fluorobenzyl)-N-{1-[(2-chlorothiazol-5-yl)methyl]piperidin-4-yl}amine] | 7.1% | -1.3% | 11% | 18.6% | -0.1% | 9%
15 | CN(Cc1ccc(Cl)c(Cl)c1)C1CCN(Cc2cnc(Cl)s2)CC1 [Example 17, N-methyl-N-(3,4-dichlorobenzyl)-N-{1-[(2-chlorothiazol-5-yl)methyl]piperidin-4-yl}amine] | 45.4% | 42.9% | 63.8% | 34.3% | 5.3% | 53.4%
16 | CN(Cc1cccc(Cl)c1)C1CCN(Cc2cnc(Cl)s2)CC1 [Example 18, N-methyl-N-(3-chlorobenzyl)-N-{1-[(2-chlorothiazol-5-yl)methyl]piperidin-4-yl}amine] | 7.1% | 9.7% | 12.6% | 15.5% | 8.5% | 8.4%
17 | CN(Cc1c(F)cccc1Cl)C1CCN(Cc2cnc(Cl)s2)CC1 [Example 19, N-methyl-N-(2-fluoro-6-chlorobenzyl)-N-{[1-(2-chlorothiazol-5-yl)methyl]piperidin-4-yl}amine] | 10.6% | 10.4% | 22.4% | 9.8% | 1.5% | 3.2%
18 | CN(Cc1ccc(Cl)cc1Cl)C1CCN(Cc2cnc(Cl)s2)CC1 [Example 20, N-methyl-N-(2,4-dichlorobenzyl)-N-{[1-(2-chlorothiazol-5-yl)methyl]piperidin-4-yl}amine] | 64.1% | 30.1% | 60.8% | 47.1% | 11.4% | 61.8%
19 | Cc1ccccc1CN(C)C1CCN(Cc2cnc(Cl)s2)CC1 [Example 21, N-methyl-N-(2-methylbenzyl)-N-{[1-(2-chlorothiazol-5-yl)methyl]piperidin-4-yl}amine] | 1.5% | 4.4% | 3.5% | 9.7% | 5.1% | 4%
20 | Cc1ccc(CN(C)C2CCN(Cc3cnc(Cl)s3)CC2)cc1 [Example 22, N-methyl-N-(4-methylbenzyl)-N-{[1-(2-chlorothiazol-5-yl)methyl]piperidin-4-yl}amine] | 14.2% | 10.9% | 29.6% | 26.2% | 8.4% | 16%
21 | CN(Cc1cccc(F)c1)C1CCN(Cc2cnc(Cl)s2)CC1 [Example 23, N-methyl-N-(3-fluorobenzyl)-N-{[1-(2-chlorothiazol-5-yl)methyl]piperidin-4-yl}amine] | 2.4% | 3.2% | 4.4% | 4.2% | 1.3% | 5.7%

Source: patent US10023565B2, “N,N′ substituted piperidinamine compounds, and preparation method and usage thereof” (Institute of Pharmacology and Toxicology Academy of …, priority 2013, dated 2018)
